Source: ChEMBL document CHEMBL4296182, “CO-ADD screening of NIH NCI Diversity Set V”
In brackets after ≈: the same amount, converted by molar mass.

Key:
[1] = test system: HEK293; assay: cells; type: functional; details: Homo sapiens, ATCC CRL1573, HEK293; ASSAY_TEST Inhibition of Cell Viability; detection method Resazurin; Fluorescence (ex560/em590); MEDIA DMEM with 10% FBS; plate type 384well; TC; CORNING #3712; time 18 hr
[2] = test system: Klebsiella pneumoniae; assay: microbe, parasite or virus in culture; details: ATCC 700603, 18 h, ASSAY_TEST Inhibition of Bacterial Growth, detection method Absorption (OD600), MEDIA CAMHB, plate type 384well, NBS, CORNING #3640
Description: Antibacterial activity against Klebsiella pneumoniae MDR ATCC 70063 (CO-ADD:GN_003); MIC in CAMBH media using NBS plates, by OD(600)

[3] = test system: Staphylococcus aureus; assay: microbe, parasite or virus in culture; details: ATCC 43300, 18 h, ASSAY_TEST Inhibition of Bacterial Growth, detection method Absorption (OD600), MEDIA CAMHB, plate type 384well, NBS, CORNING #3640
Description: Antibacterial activity against Staphylococcus aureus MRSA ATCC 43300 (CO-ADD:GP_020); MIC in CAMBH media, using NBS plates, by OD(600)

[4] = test system: Escherichia coli; assay: microbe, parasite or virus in culture; details: ATCC 25922, 18 h, ASSAY_TEST Inhibition of Bacterial Growth, detection method Absorption (OD600), MEDIA CAMHB, plate type 384well, NBS, CORNING #3640
Description: Antibacterial activity against Escherichia coli ATCC 25922 (CO-ADD:GN_001); MIC in CAMBH media using NBS plates, by OD(600)

[5] = test system: Candida albicans; assay: microbe, parasite or virus in culture; details: ATCC 90028, ASSAY_TEST Inhibition of Fungal Growth, detection method Absorption (OD530), plate type 384well, NBS, CORNING #3640
Description: Antifungal activity against Candida albicans ATCC 90028 (CO-ADD:FG_001); MIC in YNB media using NBS plates, by OD630

[6] = test system: Acinetobacter baumannii; assay: microbe, parasite or virus in culture; details: ATCC 19606, 18 h, ASSAY_TEST Inhibition of Bacterial Growth, detection method Absorption (OD600), MEDIA CAMHB, plate type 384well, NBS, CORNING #3640
Description: Antibacterial activity against Acinetobacter baumannii ATCC 19606 (CO-ADD:GN_034); MIC in CAMBH media using NBS plates, by OD600

[7] = test system: Pseudomonas aeruginosa; assay: microbe, parasite or virus in culture; details: ATCC 27853, 18 h, ASSAY_TEST Inhibition of Bacterial Growth, detection method Absorption (OD600), MEDIA CAMHB, plate type 384well, NBS, CORNING #3640
Description: Antibacterial activity against Pseudomonas aeruginosa ATCC 27853 (CO-ADD:GN_042); MIC in CAMBH media using NBS plates, by OD(600)

[8] = test system: Cryptococcus neoformans
Description: Antifungal activity against Cryptococcus neoformans H99 ATCC 208821 (CO-ADD:FG_002); MIC in YNB media using NBS plates, by Resazurin OD(600-570)

SMILES | MIC [2] [µM] | MIC [3] [µM] | MIC [4] [µM] | MIC [5] [µM] | MIC [6] [µM] | MIC [7] [µM] | MIC [8] [µM] | CC50 [1] [µM]
COC1C(OC(=O)c2ccc(C)[nH]2)C(O)C(Oc2ccc3c(O)c(NC(=O)c4ccc(O)c(CC=C(C)C)c4)c(=O)oc3c2Cl)OC1(C)C (centres undefined) | > 10 | ≤ 0.0781 | > 10 | > 10 | > 10 | 10 (≈ 6.97 µg/mL) | > 10 | 9.55
O=C(O)c1[nH]c(=O)[nH]c(=O)c1F | > 10 | > 10 | > 10 | > 10 | > 10 | > 10 | > 10 | > 10
c1ccc2nc(OCCN3CC3)ccc2c1 | > 10 | > 10 | > 10 | > 10 | > 10 | > 10 | > 10 | > 10
O=C(Nc1ccc(Nc2ccncc2)cc1)c1ccc(Nc2ccnc3ccc([N+](=O)[O-])cc23)cc1[N+](=O)[O-] | > 10 | > 10 | > 10 | > 10 | > 10 | > 10 | > 10 | > 10
O=C(Nc1ccc(Nc2ccncc2)cc1)c1ccc(Nc2ccnc3ccc([N+](=O)[O-])cc23)cc1 | > 10 | > 10 | > 10 | > 10 | > 10 | > 10 | 2.5 (≈ 1.19 µg/mL) | > 10
Oc1cccc2nc3ccccc3nc12 | > 10 | > 10 | > 10 | > 10 | > 10 | > 10 | > 10 | > 10
CC[C@@]1(O)C(=O)OCc2c1cc1n(c2=O)Cc2cc3c(NC(=O)CN)cccc3nc2-1 | > 10 | > 10 | > 10 | > 10 | > 10 | > 10 | > 10 | 0.6
O=C(Nc1cccc(-c2nc3ccccc3[nH]2)c1)c1ccc(C(=O)Nc2cccc(-c3nc4ccccc4[nH]3)c2)cc1 | > 10 | > 10 | > 10 | > 10 | > 10 | > 10 | > 10 | > 10
C=Cc1cc(OC)c2c(c1)c(=O)oc1c2cc(OC)c2c(O)ccc(C3OC(C)C(O)C(C)(O)C3O)c21 (centres undefined) | > 10 | 0.156 (≈ 0.0795 µg/mL) | > 10 | > 10 | > 10 | > 10 | > 10 | 1.85
O=C(O)C(=O)Nc1nc[nH]n1 | > 10 | > 10 | > 10 | > 10 | > 10 | > 10 | > 10 | > 10
COC12C(COC(N)=O)C3=C(C(=O)C(C)=C(N)C3=O)N1CC1C2N1C (centres undefined) | > 10 | 0.156 (≈ 0.0544 µg/mL) | 5 (≈ 1.74 µg/mL) | > 10 | > 10 | > 10 | > 10 | > 10
COC1CC(C)C(OC)c2cc(O)cc(c2O)NC(=O)/C(C)=C/C=C\C(C)C(OC(N)=O)/C(C)=C\C(C)C1OC (centres undefined) | > 10 | > 10 | > 10 | > 10 | > 10 | > 10 | > 10 | 1.09
COC1CC2\C=C(C)/C=C/C=C/C(=O)NC(c3ccccc3)C/C=C/CCC(O)CC(=O)C2=C1O (centres undefined) | > 10 | 0.156 (≈ 0.0746 µg/mL) | > 10 | 1.25 (≈ 0.597 µg/mL) | > 10 | > 10 | 5 (≈ 2.39 µg/mL) | 2.08
O=[N+]([O-])c1oc2ccc3ccccc3c2c1CCO | > 10 | 2.5 (≈ 0.643 µg/mL) | 5 (≈ 1.29 µg/mL) | > 10 | > 10 | > 10 | > 10 | 1.13

The next lines start with results.

MIC [2] [µM] | MIC [3] [µM] | MIC [4] [µM] | MIC [5] [µM] | MIC [6] [µM] | MIC [7] [µM] | MIC [8] [µM] | SMILES | CC50 [1] [µM]
> 10 | > 10 | > 10 | > 10 | > 10 | > 10 | > 10 | CCN1CCCC(Sc2nc3c(=S)n(C)c(=O)n(C)c3[nH]2)C1 (centres undefined) | > 10
> 10 | > 10 | > 10 | > 10 | > 10 | > 10 | > 10 | O=C(Nc1ccc(C2=NCCN2)cc1)c1ccc(Cl)c(C(=O)Nc2ccc(C3=NCCN3)cc2)c1 | > 10
> 10 | > 10 | > 10 | > 10 | > 10 | > 10 | > 10 | Cc1c(N2CCCC2)cc2c(c1NC(=O)c1ccccc1Cl)C(C)(C)CC2(C)C | > 10
> 10 | > 10 | > 10 | > 10 | > 10 | > 10 | > 10 | O=C(Nc1ccc(C2=NCCN2)cc1)c1ccc(C(=O)Nc2ccc(C3=NCCN3)cc2)c(Cl)c1 | > 10
> 10 | > 10 | > 10 | 2.5 (≈ 0.476 µg/mL) | > 10 | > 10 | 10 (≈ 1.9 µg/mL) | CC(C)=NNc1ncnc2[nH]cnc12 | > 10
> 10 | > 10 | > 10 | 10 (≈ 2.02 µg/mL) | > 10 | > 10 | > 10 | Sc1nc2ccc(Cl)cc2s1 | > 10
> 10 | > 10 | > 10 | > 10 | > 10 | > 10 | > 10 | Clc1ccc(SCNc2ccccc2Cl)cc1 | > 10
> 10 | ≤ 0.0781 | > 10 | ≤ 0.0781 | > 10 | 2.5 | 1.25 | CCN(CC)c1ccc(C(=C2C=CC(=[N+](CC)CC)C=C2)c2ccc(N(CC)CC)cc2)cc1 | 1.47
> 10 | 5 (≈ 1.73 µg/mL) | > 10 | > 10 | > 10 | > 10 | > 10 | Nc1ncnc2c1ncn2C1OC(COS(N)(=O)=O)C(O)C1O (centres undefined) | 0.227
> 10 | > 10 | > 10 | > 10 | > 10 | > 10 | > 10 | O=C(Nc1ccccc1)C1=C(Nc2ccccc2)CSC1 | > 10
> 10 | 5 (≈ 1.1 µg/mL) | > 10 | > 10 | > 10 | > 10 | > 10 | COC(=O)C1(F)C(=O)NC(=O)NC1OC (centres undefined) | > 10
> 10 | > 10 | > 10 | > 10 | > 10 | > 10 | > 10 | N=C(N)NCCCS(=O)(=O)Nc1ccc(Nc2c3ccccc3nc3cc([N+](=O)[O-])ccc23)cc1 | > 10
> 10 | > 10 | > 10 | 10 (≈ 2.72 µg/mL) | > 10 | > 10 | > 10 | CN(C)c1n/c(=N/c2cccc(Cl)c2)ss1 | > 10
> 10 | 10 (≈ 2.68 µg/mL) | > 10 | > 10 | > 10 | > 10 | > 10 | NC1(N2SC(S)=C3CCCC=C32)CCCCC1 | > 10
> 10 | > 10 | > 10 | > 10 | > 10 | > 10 | > 10 | O=C(/C=C/c1cccnc1)c1ccccc1O | > 10
> 10 | > 10 | > 10 | > 10 | > 10 | > 10 | > 10 | Nc1nc(N)c2c(ccc3[nH]ccc32)n1 | > 10
> 10 | 5 (≈ 1.78 µg/mL) | 0.156 (≈ 0.0557 µg/mL) | > 10 | > 10 | > 10 | > 10 | CN(C)CCOc1ccc2c(c1)C(=O)/C(=C\c1ncc([N+](=O)[O-])n1C)C2 | 1.55
> 10 | > 10 | > 10 | > 10 | > 10 | > 10 | > 10 | CCCCOc1ccc(/N=N\c2ccc(N)nc2N)cn1 | > 10
> 10 | 10 (≈ 3.38 µg/mL) | > 10 | > 10 | > 10 | > 10 | 5 (≈ 1.69 µg/mL) | Cc1cc(N)c2cc(NC(=O)/C=C\c3ccccc3Cl)ccc2n1 | 2.78
